What was measured:
[1] = tested on: carrageenan-induced paw edema in the rat; test: In Vivo Assay--Rat Carrageenan-Induced Paw Edema; design: species or system rat (male Sprague-Dawley); conditions: intraperitoneal, 6 hours; FIG. 3
Source text: The model, which provides a tool for investigating the effect of compounds on paw intimation, is described in the following reference: Bartlett, R. R., et al. (1993), "Effects of leflunomide on immune responses and models of inflammation," Springer Semin Immunopathol 14:381-394. It essentially consists of the following:
1. Rats: Male Sprague-Dawley, approximately 165 g obtainable from Harlan Sprague Dawley, Indianapolis, Ind., USA;
a. Measure the volume of the left hind paw by strain gauge/fluid immersion;
b. Inject 100 μL of 1% carrageenan in saline intradermally into the left hind foot pad;
c. Inject vehicles or test compounds dissolved in either saline (CPR-2015) or 50% saline and 50% ethanol (indomethacin, dexamethasone, and CPR-2014) intraperitoneally, placing 3-5 rats in each treatment group;
d. Six hours later, measure the volume of the left hind paw by strain gauge/fluid immersion;
e. Calculate average percent increase in paw volume for each treatment group.

[2] = tested on: PMA-induced inflammation in mouse ears; test: In Vivo Assay--Mouse Ear model, PMA-induced inflammation; design: species or system mouse (male CD-1); conditions: concentration tested 5%, topical to ear, 6 hours; FIG. 1
Protocol: A common in vivo model for the evaluation of anti-inflammatory agents is PMA-induced inflammation in mouse ears. This method is described in "Pharmacological Methods in the Control of Inflammation," Joseph Y. Chang and Alan J. Lewis (eds), Alan R. Liss, Inc., New York, pp 221-223 (1989). In this assay, edema, which is a characteristic of inflammation, is quantified by determining ear thickness or ear weight approximately 6 hours after applying PMA to the ear.
1. Mice: Male CD-1, 21-24 g (Product Number 3002) obtainable from Harlan Sprague Dawley, Indianapolis, Ind., USA.
a. Prepare 0.01% (w/v) PMA in a mixture of equal volumes of acetone and ethanol;
b. Prepare 0.01% (w/v) PMA and 5% (w/v) test compound in a mixture of equal volumes of acetone and ethanol;
c. Divide 12 mice into 4 groups of 3 mice each;
d. Treat the first group of mice by applying 20 μL of a mixture of equal volumes of acetone and ethanol (vehicle) to the left ear using a micropipetter;
e. Treat the second group of mice by applying 20 μL of PMA solution to the left ear;
f. Treat the other two groups of mice by applying 20 μL of PMA/test compound solution to the left ear;
g. Wait 6 hours and euthanize the mice in a CO2 chamber;
h. Cut the ears and punch out circles of 6-mm diameter; and
i. Measure the weight of three appropriate ear punches in the same group together.

[3] = tested on: TNB-induced inflammation in rat colon; test: In Vivo Assay--Rat Ulcerative Colitis Model (TNB-induced); design: species or system rat (male Sprague-Dawley); conditions: 150 mg/kg, rectal, once a day for 5 days; FIG. 2
Source text: The model described in this section provides a tool for investigating the effect of compounds in colonic intimation. This model and the experimental methods are described in the following reference: Luck, Michael S. and Bass, Paul, (1993), "Effect of Epidermal Growth Factor on Experimental Colitis in the Rat," J. Pharmacol. Exp. Therap. 264:984-990. In this assay, inflammatory lesions in the rat colon are induced by the intracolonic administration of 2,4,6-trinitrobenzenesulfonic acid.
1. Rats: Male Sprague-Dawley, 185-195 g obtainable from Harlan Sprague Dawley, Indianapolis, Ind., USA;
a. Prepare 100 mg/mL 5-aminosalicylic acid (5-ASA), 50 mg/mL CPR-2015, and 150 mg/mL CPR-2015 in saline;
b. Divide 34 rats into 4 groups of 8 rats each and one group of two rats;
c. Leave the group with two rats completely untreated;
d. Treat the other four groups of rats with 200 μl of Saline, 500 μl of 100 mg/mL 5-ASA, 200 μl of 50 mg/mL CPR-2015, or 200 μl of 150 mg/mL CPR-2015. These treatments are administered rectally with an 8-cm catheter;
e. After one hour, treat the above four groups of rats rectally with 500 μl of 100 mg/mL 2,4,6-trinitrobenzenesulfonic acid (TNB) in 30% ethanol and 70% saline;
f. Repeat the treatments described in paragraph 2(d) once a day for a total of 5 days;
g. On the 6th day, euthanize the rates in a CO2 chamber; and
h. […]

[4] = tested on: Mouse Macrophage RAW 264.7; test: In Vitro Chemiluminescence Assay: inhibition of respiratory burst in PMA-stimulated mouse macrophage RAW 264.7; type: cell-based
Source text: The cells are capable of phagocytosis and undergo an oxidative burst in response to appropriate signals. Agents that inhibit the activation of these cell in vitro are therefore inhibitors of critical steps in inflammatory processes.
Activation of macrophages and other phagocytic cell types initiates a cascade of actions that include increased oxygen consumption (respiratory burst) and production of oxygen radicals. These events can be measured m a variety of ways, including chemiluminescence based on the addition of luminol (see M. A. Trush et al, (1978), The generation of chemiluminescence by phagocytic cells, Methods in Enzymology 56:462-494). Because chemiluminescence is induced by the increased production of oxygen radicals that are thought to be important in intracellular killing of bacteria, chemiluminescence has long been used as an index of phagocytic cell activity. In addition, oxygen radical production is associated with inflammatory responses and may have adverse consequences in non-infectiousinflammation. For this reason, macrophage activation is of critical importance in studies of the inflammatory process. Agents that reduce macrophage activation are likely to have utility as anti-inflammatory agents.
1. Cell line: Raw 264.7 (ATCC TIB-71, attachment dependent).
2. Culture medium: Dulbecco's Modified Eagle's Medium (DMEM) with 10% Fetal Bovine Serum (FBS).
3. Standard protocol for culturing cell lines: in T-75 or T-150 flasks; 37° C.; 95% air, 5% CO2; 100% humidity;
a. Cell line is passaged when approximately 80% confluent; with trypsin (1 mg/mL) and ethylenediaminetetraacetic acid (EDTA) (1 mM in Ca-Mg free Hank's balanced salt solution); at a 1:4 to 1:5 split;
b. All procedures are performed aseptically in a class II biological safety cabinet using standard BL-2 containment procedures. In order to prevent genetic drift in stock cell lines, fresh cultures are prepared at approximately monthly intervals with cells thawed from liquid nitrogen storage.
a. After cell passage, count cells with a hemacytometer;
b. Adjust cell concentration to approximately 1,000,000 cells per mL;
c. Suspend cells in DMEM lacking phenol red and without FBS;
d. Pipette 1 mL of cell suspension into a standard luminometer cuvette (12×75 mm), commercially obtainable from Analytical Luminescence Laboratories, San Diego, Calif., USA;
e. Add luminol to final concentration of 0.2 mM;
f. Add test compound dissolved in phosphate buffered saline (PBS) for final concentration levels ranging from 0 to 10 μM;
g. Add 100 nanograms of phorbol myristate acetate (PMA): and
h. Wait 1 minute and read photo counts (i.e., luminescence) on a Monolight 2010 luminometer available from Analytical Luminescence Laboratories, San Diego.
Background--no test compound present; no PMA present;
Control--no test compound present;
Calculate: [formula] where L is luminescence. 6.

Row | Structure (SMILES) | inhibition of carrageenan-induced edema in rat paw [1] | inhibition of PMA-induced inflammation in mouse ear [2] | inhibition of TNB-induced inflammation in rat colon [3] | inhibition at 0.1 µM ([4]; Mus musculus, RAW264.7, Concentration 0.1 µM, PMA-stimulated RAW 264.7, luminol chemiluminescence) | inhibition at 0.3 µM ([4]; Mus musculus, RAW264.7, Concentration 0.3 µM, PMA-stimulated RAW 264.7, luminol chemiluminescence) | inhibition at 1 µM ([4]; Mus musculus, RAW264.7, Concentration 1 µM, PMA-stimulated RAW 264.7, luminol chemiluminescence) | inhibition at 3 µM ([4]; Mus musculus, RAW264.7, Concentration 3 µM, PMA-stimulated RAW 264.7, luminol chemiluminescence) | inhibition at 10 µM ([4]; Mus musculus, RAW264.7, Concentration 10 µM, PMA-stimulated RAW 264.7, luminol chemiluminescence) | inhibition of PMA-induced macrophage activation ([4]; at concentrations above 0.3 μM)
1 | CCCCCCCCCCCCCCCC(=O)Nc1ccc(O)c(C(C)=O)c1 [CPR-2014, 1-(5-hexadecanamido-2-hydroxy-phenyl)-ethanone] | marked inhibition | partially inhibited | – | – | – | – | – | – | –
2 | CCCCCCCCCCCCCCCC(=O)Nc1ccc(OP(=O)([O-])OCC[N+](C)(C)C)c(C(C)=O)c1 [CPR-2015, (o-acetyl-p-N-hexadecanamido-phenyl)-O-phosphocholine] | marked inhibition | completely inhibited | marked inhibition | 13% | 63% | 94% | 97% | 99% | marked inhibition
